We go through 14 compounds from US9850283B2, “Macrocyclic inhibitors of the PD-1/PD-L1 and CD80(B7-1)/PD-L1 protein/protein interactions” (BRISTOL-MYERS SQUIBB COMPANY, priority 2013, dated 2017).

Positions of bridges follow the written chain, without caps; N, C: chain ends. Non-standard residues stand in square brackets, D forms with d. Residues, ends and D or L forms follow the SMILES beside them. Ala(benzothiazol-2-yl) = N[C@@H](Cc1nc2ccccc2s1)C(=O)O; Trp(1-Me) = Cn1cc(C[C@H](N)C(=O)O)c2ccccc21; Bta = N[C@@H](Cc1csc2ccccc12)C(=O)O; Hyp = O=C(O)[C@@H]1C[C@@H](O)CN1; NMeNle = CCCC[C@H](NC)C(=O)O; NMeA = CN[C@@H](C)C(=O)O; Orn = NCCC[C@H](N)C(=O)O; Dab = NCC[C@H](N)C(=O)O; Dap = NC[C@H](N)C(=O)O

One experiment deals with T1, Human PD-L1/PD-1 (Homo sapiens, UniProt Q9NZQ7).
T1 construct: made in house; host or cells: HEK293T
Nature of the experiment: HTRF PD-1-Ig/PD-L1-His binding assay (human PD-L1). Particulars: cluster symbol; read-out: HTRF IC50 cluster. Put shortly: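 Readout: time-resolved FRET between Eu cryptate-labeled anti-Ig (1 nM final) and APC-labeled anti-His (20 nM final) antibodies. These detect interaction of Fc-fused PD-1 with His-tagged human PD-L1 in dPBS containing 0.1% BSA and 0.05% Tween-20.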
On the technique in general: TR-FRET usually uses a lanthanide donor and a delayed reading to cut background.

Experiment [1] addresses T2, LK35.2-hPD-L1 cells / PE-labeled PD-1-Ig (Homo sapiens, UniProt Q9NZQ7).
T2 construct: expressed in transfected cells; host or cells: LK35.2 mouse B cell line
Nature of the experiment: LK35.2-hPD-L1 cell binding high-content screening assay. It counts as cell-based. As to conditions: cluster symbol; cell line of CBA not given (LK35.2-hPD-L1 or 293T-hPD-L1); read-out: CBA IC50 cluster. In short, it runs like this:
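Mouse LK35.2 B cells stably overexpressing human PD-L1 were cultured overnight in RPMI with 10% FCS, then given compound and PE-labeled human PD-1-Ig (1 nM final) for 1 h at 37 °C. After three dPBS washes, bound fluorescence was quantified by high-content imaging.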

T1 sequence (Q9NZQ7 with tags, fused parts or gaps): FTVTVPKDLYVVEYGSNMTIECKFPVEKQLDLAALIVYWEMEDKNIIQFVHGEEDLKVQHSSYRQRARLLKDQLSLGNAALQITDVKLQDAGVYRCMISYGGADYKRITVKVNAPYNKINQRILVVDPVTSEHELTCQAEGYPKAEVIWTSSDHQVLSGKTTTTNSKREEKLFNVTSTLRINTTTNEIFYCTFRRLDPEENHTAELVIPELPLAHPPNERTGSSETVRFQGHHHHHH
T2 sequence (Q9NZQ7 19-290): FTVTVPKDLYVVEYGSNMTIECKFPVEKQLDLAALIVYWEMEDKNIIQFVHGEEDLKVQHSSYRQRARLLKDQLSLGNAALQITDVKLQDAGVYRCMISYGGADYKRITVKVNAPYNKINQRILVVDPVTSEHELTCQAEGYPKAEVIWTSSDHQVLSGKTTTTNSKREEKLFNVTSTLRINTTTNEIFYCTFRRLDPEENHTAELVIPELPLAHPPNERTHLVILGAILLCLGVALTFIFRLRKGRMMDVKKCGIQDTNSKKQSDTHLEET

Consider `CCCC[C@H]1C(=O)N(C)[C@@H](CCCC)C(=O)N[C@@H](CCCNC(=N)N)C(=O)N[C@H](C(=O)NCC(N)=O)CSCC(=O)N[C@@H](Cc2ccc(O)cc2)C(=O)N(C)[C@@H](C)C(=O)N[C@@H](CC(N)=O)C(=O)N2CCC[C@H]2C(=O)N[C@@H](CN)C(=O)N[C@@H](CCC(=O)O)C(=O)N2CCC[C@H]2C(=O)N[C@@H](Cc2c[nH]c3ccccc23)C(=O)N[C@@H](CO)C(=O)N[C@@H](Cc2csc3ccccc23)C(=O)N1C` [Example 1127] ({CH2CO}-Y[NMeA]NP[Dap]EPWS[Bta][NMeNle][NMeNle]RCG-NH2; thioether N-14), for which the IC50 (in general, the concentration at which inhibition is half-maximal) on Human PD-L1/PD-1 lay in the range of 0.385 to 6.74 nM; in experiment [1] it was 0.158 to 4.71 nM.
Take `CCCC[C@H]1C(=O)N(C)[C@@H](CCCC)C(=O)N[C@@H](CCCNC(=N)N)C(=O)N[C@H](C(=O)NCC(N)=O)CSCC(=O)N[C@@H](Cc2ccc(O)cc2)C(=O)N(C)[C@@H](C)C(=O)N[C@@H](CC(N)=O)C(=O)N2CCC[C@H]2C(=O)N[C@@H](CN)C(=O)N[C@@H](CCC(=O)O)C(=O)N2C[C@H](O)C[C@H]2C(=O)N[C@@H](Cc2c[nH]c3ccccc23)C(=O)N[C@@H](CO)C(=O)N[C@@H](Cc2csc3ccccc23)C(=O)N1C` [Example 1128] ({CH2CO}-Y[NMeA]NP[Dap]E[Hyp]WS[Bta][NMeNle][NMeNle]RCG-NH2; thioether N-14): the 50% inhibitory concentration (IC50) on Human PD-L1/PD-1 was 6.76 to 30.3 nM; in experiment [1], 0.158 to 4.71 nM.
Consider `CCCC[C@H]1C(=O)N(C)[C@@H](CCCC)C(=O)N[C@@H](CCCNC(=N)N)C(=O)N[C@H](C(=O)NCC(N)=O)CSCC(=O)N[C@@H](Cc2ccc(O)cc2)C(=O)N(C)[C@@H](C)C(=O)N[C@@H](CC(N)=O)C(=O)N2CCC[C@H]2C(=O)N[C@@H](Cc2cnc[nH]2)C(=O)N[C@@H](CC(C)C)C(=O)N2CCC[C@H]2C(=O)N[C@@H](Cc2c[nH]c3ccccc23)C(=O)N[C@@H](CO)C(=O)N[C@@H](Cc2nc3ccccc3s2)C(=O)N1C` [Example 1129] ({CH2CO}-Y[NMeA]NPHLPWS[Ala(benzothiazol-2-yl)][NMeNle][NMeNle]RCG-NH2; thioether N-14), for which the figures for the IC50 (on Human PD-L1/PD-1; in experiment [1]) were more than 30.5 nM and more than 74.3 nM, respectively.
Take `CCCC[C@H]1C(=O)N(C)[C@@H](CCCC)C(=O)N[C@@H](CCCNC(=N)N)C(=O)N[C@H](C(=O)NCC(N)=O)CSCC(=O)N[C@@H](Cc2ccc(O)cc2)C(=O)N(C)[C@@H](C)C(=O)N[C@@H](CC(N)=O)C(=O)N2CCC[C@H]2C(=O)N[C@@H](Cc2cnc[nH]2)C(=O)N[C@@H](CC(C)C)C(=O)N2CCC[C@H]2C(=O)N[C@@H](Cc2c[nH]c3ccccc23)C(=O)N[C@@H](CO)C(=O)N[C@@H](Cc2cn(C)c3ccccc23)C(=O)N1C` [Example 1130] ({CH2CO}-Y[NMeA]NPHLPWS[Trp(1-Me)][NMeNle][NMeNle]RCG-NH2; thioether N-14): the IC50 on Human PD-L1/PD-1 is more than 30.5 nM; in experiment [1], 0.158 to 4.71 nM.
`CCCC[C@H]1C(=O)N(C)[C@@H](CCCC)C(=O)N[C@@H](CCN)C(=O)N[C@H](C(=O)NCC(N)=O)CSCC(=O)N[C@@H](Cc2ccc(O)cc2)C(=O)N(C)[C@@H](C)C(=O)N[C@@H](CC(N)=O)C(=O)N2CCC[C@H]2C(=O)N[C@@H](Cc2cnc[nH]2)C(=O)N[C@@H](CC(C)C)C(=O)N2C[C@H](O)C[C@H]2C(=O)N[C@@H](Cc2c[nH]c3ccccc23)C(=O)N[C@@H](CO)C(=O)N[C@@H](Cc2c[nH]c3ccccc23)C(=O)N1C` [Example 1131]: the IC50 lay within 0.385 to 6.74 nM at Human PD-L1/PD-1 and 0.158 to 4.71 nM in experiment [1].
On to `CCCC[C@H]1C(=O)N(C)[C@@H](CCCC)C(=O)N[C@@H](CN)C(=O)N[C@H](C(=O)NCC(N)=O)CSCC(=O)N[C@@H](Cc2ccc(O)cc2)C(=O)N(C)[C@@H](C)C(=O)N[C@@H](CC(N)=O)C(=O)N2CCC[C@H]2C(=O)N[C@@H](Cc2cnc[nH]2)C(=O)N[C@@H](CC(C)C)C(=O)N2C[C@H](O)C[C@H]2C(=O)N[C@@H](Cc2c[nH]c3ccccc23)C(=O)N[C@@H](CO)C(=O)N[C@@H](Cc2c[nH]c3ccccc23)C(=O)N1C` [Example 1132], for which the IC50 lay within 6.76 to 30.3 nM on Human PD-L1/PD-1 and 0.158 to 4.71 nM in experiment [1].
As for `CCCC[C@H]1C(=O)N(C)[C@@H](CCCC)C(=O)N[C@@H](CCCNC(=N)N)C(=O)N[C@H](C(=O)NCC(N)=O)CSCC(=O)N[C@@H](Cc2ccc(O)cc2)C(=O)N(C)[C@@H](C)C(=O)N[C@@H](CC(N)=O)C(=O)N2CCC[C@H]2C(=O)N[C@@H](Cc2cnc[nH]2)C(=O)N[C@@H](CC(C)C)C(=O)N2C[C@H](O)C[C@H]2C(=O)N[C@@H](Cc2c[nH]c3ccccc23)C(=O)N[C@@H](CCCN)C(=O)N[C@@H](Cc2c[nH]c3ccccc23)C(=O)N1C` [Example 1133] ({CH2CO}-Y[NMeA]NPHL[Hyp]W[Orn]W[NMeNle][NMeNle]RCG-NH2; thioether N-14), the figures for the half-inhibitory concentration (IC50) (at Human PD-L1/PD-1; in experiment [1]) were 6.76 to 30.3 nM and 0.158 to 4.71 nM, respectively.
As to `CCCC[C@H]1C(=O)N(C)[C@@H](CCCC)C(=O)N[C@@H](CCCNC(=N)N)C(=O)N[C@H](C(=O)NCC(N)=O)CSCC(=O)N[C@@H](Cc2ccc(O)cc2)C(=O)N(C)[C@@H](C)C(=O)N[C@@H](CC(N)=O)C(=O)N2CCC[C@H]2C(=O)N[C@@H](Cc2cnc[nH]2)C(=O)N[C@@H](CC(C)C)C(=O)N2C[C@H](O)C[C@H]2C(=O)N[C@@H](Cc2c[nH]c3ccccc23)C(=O)N[C@@H](CCN)C(=O)N[C@@H](Cc2c[nH]c3ccccc23)C(=O)N1C` [Example 1134] ({CH2CO}-Y[NMeA]NPHL[Hyp]W[Dab]W[NMeNle][NMeNle]RCG-NH2; thioether N-14), the IC50 at Human PD-L1/PD-1 lay in the range of 6.76 to 30.3 nM; in experiment [1] it was 0.158 to 4.71 nM.
For the compound `CCCC[C@H]1C(=O)N(C)[C@@H](CCCC)C(=O)N[C@@H](CCCNC(=N)N)C(=O)N[C@H](C(=O)NCC(N)=O)CSCC(=O)N[C@@H](Cc2ccc(O)cc2)C(=O)N(C)[C@@H](C)C(=O)N[C@@H](CC(N)=O)C(=O)N2CCC[C@H]2C(=O)N[C@@H](Cc2cnc[nH]2)C(=O)N[C@@H](CC(C)C)C(=O)N2C[C@H](O)C[C@H]2C(=O)N[C@@H](Cc2c[nH]c3ccccc23)C(=O)N[C@@H](CN)C(=O)N[C@@H](Cc2c[nH]c3ccccc23)C(=O)N1C` [Example 1135] ({CH2CO}-Y[NMeA]NPHL[Hyp]W[Dap]W[NMeNle][NMeNle]RCG-NH2; thioether N-14), the IC50 at Human PD-L1/PD-1 was 6.76 to 30.3 nM; in experiment [1], 0.158 to 4.71 nM.
With `CCCC[C@H]1C(=O)N(C)[C@@H](CCCC)C(=O)N[C@@H](CCCNC(=N)N)C(=O)N[C@H](C(=O)NCC(N)=O)CSCC(=O)N[C@@H](Cc2ccc(O)cc2)C(=O)N2CCC[C@H]2C(=O)N[C@@H](CC(N)=O)C(=O)N2CCC[C@H]2C(=O)N[C@@H](Cc2cnc[nH]2)C(=O)N[C@@H](CC(C)C)C(=O)N2CCC[C@H]2C(=O)N[C@@H](Cc2c[nH]c3ccccc23)C(=O)N[C@@H](CO)C(=O)N[C@@H](Cc2c[nH]c3ccccc23)C(=O)N1C` [Example 1136] ({CH2CO}-YPNPHLPWSW[NMeNle][NMeNle]RCG-NH2; thioether N-14), the half-inhibitory concentration (IC50) fell in the range of 6.76 to 30.3 nM at Human PD-L1/PD-1 and 4.78 to 72.9 nM in experiment [1].
In the same order, the values of `CCCC[C@H]1C(=O)N(C)[C@@H](CCCC)C(=O)N[C@@H](CCCNC(=N)N)C(=O)N[C@H](C(=O)NCC(N)=O)CSCC(=O)N[C@@H](Cc2ccc(O)cc2)C(=O)N2CCC[C@@H]2C(=O)N[C@@H](CC(N)=O)C(=O)N2CCC[C@H]2C(=O)N[C@@H](Cc2cnc[nH]2)C(=O)N[C@@H](CC(C)C)C(=O)N2CCC[C@H]2C(=O)N[C@@H](Cc2c[nH]c3ccccc23)C(=O)N[C@@H](CO)C(=O)N[C@@H](Cc2c[nH]c3ccccc23)C(=O)N1C` [Example 1137] ({CH2CO}-Y[dP]NPHLPWSW[NMeNle][NMeNle]RCG-NH2; thioether N-14) are more than 30.5 nM and more than 74.3 nM.
For the compound `CCCC[C@H]1C(=O)N(C)[C@@H](CCCC)C(=O)N[C@@H](C)C(=O)N[C@H](C(=O)NCC(N)=O)CSCC(=O)N[C@@H](Cc2ccc(O)cc2)C(=O)N(C)[C@@H](C)C(=O)N[C@@H](CC(=O)O)C(=O)N2CCC[C@H]2C(=O)N[C@@H](CN)C(=O)N[C@@H](CC(C)C)C(=O)N2C[C@H](O)C[C@H]2C(=O)N[C@@H](Cc2c[nH]c3ccccc23)C(=O)N[C@@H](CO)C(=O)N[C@@H](Cc2c[nH]c3ccccc23)C(=O)N1C` [Example 1138] ({CH2CO}-Y[NMeA]DP[Dap]L[Hyp]WSW[NMeNle][NMeNle]ACG-NH2; thioether N-14), the 50% inhibitory concentration (IC50) at Human PD-L1/PD-1 was 6.76 to 30.3 nM; in experiment [1], 0.158 to 4.71 nM.
Turning to `CCCC[C@H]1C(=O)N(C)[C@@H](CCCC)C(=O)N[C@@H](CCCN)C(=O)N[C@H](C(=O)NCC(N)=O)CSCC(=O)N[C@@H](Cc2ccc(O)cc2)C(=O)N(C)[C@@H](C)C(=O)N[C@@H](CC(N)=O)C(=O)N2CCC[C@H]2C(=O)N[C@@H](CN)C(=O)N[C@@H](CC(C)C)C(=O)N2C[C@H](O)C[C@H]2C(=O)N[C@@H](Cc2c[nH]c3ccccc23)C(=O)N[C@@H](CO)C(=O)N[C@@H](Cc2csc3ccccc23)C(=O)N1C` [Example 1139] ({CH2CO}-Y[NMeA]NP[Dap]L[Hyp]WS[Bta][NMeNle][NMeNle][Orn]CG-NH2; thioether N-14), the IC50 on Human PD-L1/PD-1 lay within 0.385 to 6.74 nM; in experiment [1] it was 0.158 to 4.71 nM.
`CCCC[C@H]1C(=O)N(C)[C@@H](CCCC)C(=O)N[C@@H](C)C(=O)N[C@H](C(=O)NCC(N)=O)CSCC(=O)N[C@@H](Cc2ccc(O)cc2)C(=O)N(C)[C@@H](C)C(=O)N[C@@H](CC(=O)O)C(=O)N2CCC[C@H]2C(=O)N[C@@H](Cc2cnc[nH]2)C(=O)N[C@@H](CCCN)C(=O)N2C[C@H](O)C[C@H]2C(=O)N[C@@H](Cc2c[nH]c3ccccc23)C(=O)N[C@@H](CO)C(=O)N[C@@H](Cc2c[nH]c3ccccc23)C(=O)N1C` [Example 1140] ({CH2CO}-Y[NMeA]DPH[Orn][Hyp]WSW[NMeNle][NMeNle]ACG-NH2; thioether N-14): the half-inhibitory concentration (IC50) at Human PD-L1/PD-1 lay within 0.385 to 6.74 nM; in experiment [1] it was 0.158 to 4.71 nM.
